From patent US20260001828A1, “BIOBASED SURFACTANT AND ANTIOXIDANT” (BLOOM BIORENEWABLES SA, priority 2022, published 2026) come the findings set out here.

The nature of series [1]: Surface tension by pendant drop method, water/air interface. The series is classed as physicochemical. As to the method: Surface tension measurements were performed using the pendant drop method by Kruss EasyDrop Standard drop shape analysis system. […]
Series [2] is described as follows: DPPH free radical antioxidant activity test (UV/visible spectrophotometry, 517 nm). The series is classed as biochemical. The protocol:
The antioxidant activity is assessed by measuring the capacity of the compound to react with a free radical (here 2,2-diphenyl-1-picrylhydrazyl also known as DPPH). […] Butylated hydroxytoluene (BHT) and vitamin E were used as […] substances (positive control) and glycerol as negative control (see FIGS. 3 and 4).

As to “Sodium linear alkylbenzenesulfonate [NaLAS]”, the Water/air interface (surface tension) in series [1] (concentration 0.10 wt %) is 33 mN/m.

With vitamin E, the figures for the inhibition rate in series [2] (concentration of 5 μg/mL), in series [2] (concentration of 10 μg/mL) and in series [2] (concentration of 50 μg/mL) were 28%, 61% and 84%, respectively.

With `Cc1cc(C(C)(C)C)c(O)c(C(C)(C)C)c1` [BHT, Butylated hydroxytoluene], the inhibition rate in series [2] (concentration of 5 μg/mL) is reported as 32%; in series [2] (concentration of 10 μg/mL), 54%; in series [2] (concentration of 50 μg/mL), 85%.

With `CCCc1cc(OC)c(O)c(OC)c1` [4-propylsyringol], the inhibition rate is 65% in series [2] (concentration of 5 μg/mL), 84% in series [2] (concentration of 10 μg/mL) and 85% in series [2] (concentration of 50 μg/mL). Further, the Water/air interface (surface tension) is 48.3 mN/m in series [1] (concentration 0.10 wt %), 34.9 mN/m in series [1] (concentration 0.50 wt %) and 32.3 mN/m in series [1] (concentration 1.00 wt %).

As for `CCCCC(CC)COC(=O)CC(C(=O)OCC(CC)CCCC)S(=O)(=O)[O-].[Na+]` (centres unmarked) [DOSS, Dioctyl Sodium Sulfosuccinate], the Water/air interface (surface tension) in series [1] (concentration 0.20 wt %) was determined as 51 mN/m.

As to `CCCc1cc(OC)c([O-])c(OC)c1.[Na+]` [PSNa, 4-propylsyringol sodium salt], the Water/air interface (surface tension) in series [1] (concentration 0.10 wt %) is 45.1 mN/m; in series [1] (concentration 0.50 wt %), 39.8 mN/m; in series [1] (concentration 1.00 wt %), 33.8 mN/m.

As for nonylphenol ethoxylate [NPE], in series [1] (concentration 0.02 wt %), the Water/air interface (surface tension) stood at 36 mN/m.

With sodium lauryl ether sulfate [SLES], in series [1] (concentration 0.02 wt %), the Water/air interface (surface tension) stood at 33.8 mN/m.

Turning to `CCCCCCCCCCCCOS(=O)(=O)[O-].[Na+]` [SLS, sodium lauryl sulfate], the Water/air interface (surface tension) in series [1] (concentration 0.20 wt %) amounted to 35.4 mN/m.
